Legend:
barnyardgrass = assay: Test B flooded paddy test; assay type: in vivo, Echinochloa crus-galli; details: 250 g ai/ha, Flood, 13 days, 0 to 100 scale (0 no effect, 100 complete control); for pest or weed control at 250 g/ha: Echinochloa crus-galli, 312 h, read-out: Plant response rating, Barnyardgrass
Procedure: (§1) Plant species in the flooded paddy test selected from barnyardgrass (Echinochloa crus-galli), ducksalad (Heteranthera limosa), rice (Oryza sativa), and sedge, umbrella (small-flower umbrella sedge, Cyperus difformis) were grown to the 2-leaf stage for testing. At time of treatment, test pots were flooded to 3 cm above the soil surface, treated by application of test compounds directly to the paddy water, and then maintained at that water depth for the duration of the test. Treated plants and controls were maintained in a greenhouse for 13 days, after which time all species were compared to controls and visually evaluated. Plant response ratings, summarized in Table B, are based on a scale of 0 to 100 where 0 is no effect and 100 is complete control. A dash (-) response means no test result.

kochia [1] = assay: Test A preemergence; assay type: in vivo, Bassia scoparia; details: 1000 g ai/ha, 0 to 100 scale (0 no effect, 100 complete control), 10 days; for pest or weed control at 1000 g/ha: Bassia scoparia, pre-emergence, 240 h, read-out: Plant response rating, Kochia
Outline: (§2)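 Loam/sand soil; pre-em directed soil spray at planting, post-em spray at 1–2 leaf (2–10 cm). Compound in non-phytotoxic solvent + surfactant. Greenhouse 10 d; visual injury vs untreated, 0 = no effect, 100 = complete control.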

ryegrass, Italian [2] = assay: Test A preemergence; assay type: in vivo, Lolium multiflorum; details: 1000 g ai/ha, 0 to 100 scale (0 no effect, 100 complete control), 10 days; for pest or weed control at 1000 g/ha: Lolium multiflorum, pre-emergence, 240 h, read-out: Plant response rating, Ryegrass, Italian
Outline: as §2

kochia [3] = assay: Test A postemergence; assay type: in vivo, Bassia scoparia; details: 1000 g ai/ha, Postemergence, 0 to 100 scale; for pest or weed control at 1000 g/ha: Bassia scoparia, post-emergence, 240 h, read-out: Plant response rating, Kochia
Outline: as §2

sedge, umbrella = assay: Test B flooded paddy test; assay type: in vivo, Cyperus difformis; details: 250 g ai/ha, Flood, 13 days, 0 to 100 scale (0 no effect, 100 complete control); for pest or weed control at 250 g/ha: Cyperus difformis, 312 h, read-out: Plant response rating, Sedge, Umbrella
Procedure: as §1

goosegrass [4] = assay: Test A postemergence; assay type: in vivo, Eleusine indica; details: 1000 g ai/ha, Postemergence, 0 to 100 scale; for pest or weed control at 1000 g/ha: Eleusine indica, post-emergence, 240 h, read-out: Plant response rating, Goosegrass
Outline: as §2

ryegrass, Italian [5] = assay: Test A postemergence; assay type: in vivo, Lolium multiflorum; details: 1000 g ai/ha, Postemergence, 0 to 100 scale; for pest or weed control at 1000 g/ha: Lolium multiflorum, post-emergence, 240 h, read-out: Plant response rating, Ryegrass, Italian
Outline: as §2

foxtail, giant [6] = assay: Test A postemergence; assay type: in vivo, Setaria faberi; details: 1000 g ai/ha, Postemergence, 0 to 100 scale; for pest or weed control at 1000 g/ha: Setaria faberi, post-emergence, 240 h, read-out: Plant response rating, Foxtail, Giant
Outline: as §2

ragweed [7] = assay: Test A postemergence; assay type: in vivo, Ambrosia artemisiifolia; details: 1000 g ai/ha, Postemergence, 0 to 100 scale; for pest or weed control at 1000 g/ha: Ambrosia artemisiifolia, post-emergence, 240 h, read-out: Plant response rating, Ragweed
Outline: as §2

blackgrass [8] = assay: Test A postemergence; assay type: in vivo, Alopecurus myosuroides; details: 1000 g ai/ha, Postemergence, 0 to 100 scale; for pest or weed control at 1000 g/ha: Alopecurus myosuroides, post-emergence, 240 h, read-out: Plant response rating, Blackgrass
Outline: as §2

horseweed = assay: Test A postemergence; assay type: in vivo, Erigeron canadensis; details: 1000 g ai/ha, Postemergence, 0 to 100 scale; for pest or weed control at 1000 g/ha: Erigeron canadensis, post-emergence, 240 h, read-out: Plant response rating, Horseweed
Outline: as §2

rice = assay: Test B flooded paddy test; assay type: in vivo, Oryza sativa; details: 250 g ai/ha, Flood, 13 days, 0 to 100 scale (0 no effect, 100 complete control); for plant injury at 250 g/ha: Oryza sativa, 312 h, read-out: Plant response rating, Rice
Procedure: as §1

ducksalad = assay: Test B flooded paddy test; assay type: in vivo, Heteranthera limosa; details: 250 g ai/ha, Flood, 13 days, 0 to 100 scale (0 no effect, 100 complete control); for pest or weed control at 250 g/ha: Heteranthera limosa, 312 h, read-out: Plant response rating, Ducksalad
Procedure: as §1

pigweed, palmer [9] = assay: Test A preemergence; assay type: in vivo, Amaranthus palmeri; details: 1000 g ai/ha, 0 to 100 scale (0 no effect, 100 complete control), 10 days; for pest or weed control at 1000 g/ha: Amaranthus palmeri, pre-emergence, 240 h, read-out: Plant response rating, Pigweed, Palmer
Outline: as §2

goosegrass [10] = assay: Test A preemergence; assay type: in vivo, Eleusine indica; details: 1000 g ai/ha, 0 to 100 scale (0 no effect, 100 complete control), 10 days; for pest or weed control at 1000 g/ha: Eleusine indica, pre-emergence, 240 h, read-out: Plant response rating, Goosegrass
Outline: as §2

blackgrass [11] = assay: Test A preemergence; assay type: in vivo, Alopecurus myosuroides; details: 1000 g ai/ha, 0 to 100 scale (0 no effect, 100 complete control), 10 days; for pest or weed control at 1000 g/ha: Alopecurus myosuroides, pre-emergence, 240 h, read-out: Plant response rating, Blackgrass
Outline: as §2

galium = assay: Test A postemergence; assay type: in vivo, Galium aparine; details: 1000 g ai/ha, Postemergence, 0 to 100 scale; for pest or weed control at 1000 g/ha: Galium, post-emergence, 240 h, read-out: Plant response rating, Galium
Outline: as §2

ragweed [12] = assay: Test A preemergence; assay type: in vivo, Ambrosia artemisiifolia; details: 1000 g ai/ha, 0 to 100 scale (0 no effect, 100 complete control), 10 days; for pest or weed control at 1000 g/ha: Ambrosia artemisiifolia, pre-emergence, 240 h, read-out: Plant response rating, Ragweed
Outline: as §2

pigweed, palmer [13] = assay: Test A postemergence; assay type: in vivo, Amaranthus palmeri; details: 1000 g ai/ha, Postemergence, 0 to 100 scale; for pest or weed control at 1000 g/ha: Amaranthus palmeri, post-emergence, 240 h, read-out: Plant response rating, Pigweed, Palmer
Outline: as §2

foxtail, giant [14] = assay: Test A preemergence; assay type: in vivo, Setaria faberi; details: 1000 g ai/ha, 0 to 100 scale (0 no effect, 100 complete control), 10 days; for pest or weed control at 1000 g/ha: Setaria faberi, pre-emergence, 240 h, read-out: Plant response rating, Foxtail, Giant
Outline: as §2

Row | Structure (SMILES) | pest or weed control at 250 g/ha (barnyardgrass) [%] | pest or weed control at 1000 g/ha (kochia [1]) [%] | pest or weed control at 1000 g/ha (ryegrass, Italian [2]) [%] | pest or weed control at 1000 g/ha (kochia [3]) [%] | pest or weed control at 250 g/ha (sedge, umbrella) [%] | pest or weed control at 1000 g/ha (goosegrass [4]) [%] | pest or weed control at 1000 g/ha (ryegrass, Italian [5]) [%] | pest or weed control at 1000 g/ha (foxtail, giant [6]) [%] | pest or weed control at 1000 g/ha (ragweed [7]) [%] | pest or weed control at 1000 g/ha (blackgrass [8]) [%] | pest or weed control at 1000 g/ha (horseweed) [%] | plant injury at 250 g/ha (rice) [%] | pest or weed control at 250 g/ha (ducksalad) [%] | pest or weed control at 1000 g/ha (pigweed, palmer [9]) [%] | pest or weed control at 1000 g/ha (goosegrass [10]) [%] | pest or weed control at 1000 g/ha (blackgrass [11]) [%] | pest or weed control at 1000 g/ha (galium) [%] | pest or weed control at 1000 g/ha (ragweed [12]) [%] | pest or weed control at 1000 g/ha (pigweed, palmer [13]) [%] | pest or weed control at 1000 g/ha (foxtail, giant [14]) [%] | further results
1 | COCC1CN(C(=O)c2ccnc(-n3cncn3)c2)c2cccc(Cl)c2O1 (stereo not drawn) [Compound 35, [8-Chloro-2,3-dihydro-2-(methoxymethyl)-4H-1,4-benzoxazin-4-yl][2-(1H-1,2,4-triazol-1-yl)-4-pyridinyl]methanone] | 0 | 50 | 90 | 50 | 40 | 50 | 80 | 90 | 50 | 60 | 20 | 0 | 30 | 90 | 90 | 70 | 80 | 20 | 50 | 100 | 
2 | COc1cccc2c1OC(C)CN2C(=O)c1cccc(-n2cncn2)c1 (stereo not drawn) [Compound 41] |  |  |  |  |  |  |  |  |  |  |  |  |  |  |  |  |  |  |  |  | Plant response rating, Barnyardgrass (barnyardgrass): 0; Plant response rating, Kochia (kochia [1]): 0; Plant response rating, Ryegrass, Italian (ryegrass, Italian [2]): 70; Plant response rating, Kochia (kochia [3]): 20; Plant response rating, Sedge, Umbrella (sedge, umbrella): 55; Plant response rating, Goosegrass (goosegrass [4]): 0; Plant response rating, Ryegrass, Italian (ryegrass, Italian [5]): 60; Plant response rating, Foxtail, Giant (foxtail, giant [6]): 60; Plant response rating, Ragweed (ragweed [7]): 0; Plant response rating, Blackgrass (blackgrass [8]): 50; Plant response rating, Horseweed (horseweed): 0; Plant response rating, Rice (rice): 0; Plant response rating, Ducksalad (ducksalad): 50; Plant response rating, Pigweed, Palmer (pigweed, palmer [9]): 30; Plant response rating, Goosegrass (goosegrass [10]): 90; Plant response rating, Blackgrass (blackgrass [11]): 30; Plant response rating, Galium (galium): 70; Plant response rating, Ragweed (ragweed [12]): 0; Plant response rating, Pigweed, Palmer (pigweed, palmer [13]): 20; Plant response rating, Foxtail, Giant (foxtail, giant [14]): 90
3 | C[C@H]1CN(C(=O)c2cccc(-c3cnn(C)c3)c2)c2cccc(Cl)c2O1 [Compound 119, [(2S)-8-Chloro-2,3-dihydro-2-methyl-4H-1,4-benzoxazin-4-yl][3-(1-methyl-1H-pyrazol-4-yl)phenyl]methanone] | 0 | 10 | 50 | 90 | 0 | 70 | 20 | 90 | 70 | 70 | 0 | 0 | 0 | 90 | 90 | 70 | 90 | 90 | 80 | 100 | 

From patent publication US20260262643A1, “HERBICIDAL BENZOXAZINES” (FMC CORPORATION, priority 2022, published 2026)
